8 compounds from PMC4581293, “Structure-Based Optimization of Inhibitors of the Aspartic Protease Endothiapepsin” (International Journal of Molecular Sciences, 2015) can be followed below.

This assay concerns the target T1, endothiapepsin (Cryphonectria parasitica, UniProt P11838).
T1 construct: Endothiapepsin was purified from Suparen; purchased DSM Food Specialties, Heerlen, The Netherlands (kindly provided) Suparen
T1 sequence (P11838 90-419): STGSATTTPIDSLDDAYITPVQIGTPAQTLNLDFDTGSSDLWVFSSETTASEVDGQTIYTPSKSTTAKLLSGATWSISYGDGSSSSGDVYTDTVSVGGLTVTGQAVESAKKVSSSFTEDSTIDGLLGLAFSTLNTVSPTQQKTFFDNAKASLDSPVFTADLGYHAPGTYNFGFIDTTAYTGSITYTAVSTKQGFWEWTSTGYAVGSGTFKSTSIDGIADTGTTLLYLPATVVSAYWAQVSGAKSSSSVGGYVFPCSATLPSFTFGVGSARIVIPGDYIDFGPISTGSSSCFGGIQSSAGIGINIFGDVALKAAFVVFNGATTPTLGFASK
Put plainly: Fluorescence-based enzymatic inhibition assay (adapted from the HIV protease assay). Type of assay: biochemical. The settings on record: for IC50: 0.4 nM endothiapepsin, 1.8 μM substrate, pH 4.6, 2.1% DMSO, E/Z mixture, duplicate, ± SD; for ΔGexpt, experimental Gibbs free energy of binding: derived from the experimentally determined IC50 values using the Cheng–Prusoff equation; for LE (ligand efficiency): obtained from the IC50 values using the Cheng–Prusoff equation. The source says:
To determine their inhibitory potency against endothiapepsin, we subjected these acylhydrazone derivatives to a fluorescence-based enzymatic inhibition assay, adapted from the HIV protease assay.
Endothiapepsin was purified from Suparen® (kindly provided by DSM Food Specialties, Heerlen, The Netherlands) by exchanging the buffer to sodium acetate buffer (0.1 M, pH 4.6) using a Vivaspin 500 (Sartorius, Rotterdam, The Netherlands) with a molecular weight cutoff at 10,000 Da.
Stock solutions (100 mM in DMSO) were prepared for acylhydrazones 2–9 (mixture of E/Z isomers). The final reaction volume was 200 μL containing 0.4 nM endothiapepsin, 1.8 μM substrate and 2.1% DMSO. The final concentration of inhibitors was 1000 μM in the first well and subsequent half dilution in next 10 wells. In the same way, blanks were prepared using DMSO instead of the inhibitor stock solutions. As substrate, Abz–Thr–Ile–Nle-p-nitro-Phe–Gln–Arg–NH2 (purchased from Bachem, Bubendorf, Switzerland) was used for the fluorescence screening assay. The assay was performed with flat bottom 96-well microplates (purchased from Greiner Bio-One, Alphen aan den Rijn, The Netherlands) using a Synergy Mx microplate reader at an excitation wavelength of 337 nm and an emission wavelength of 414 nm. […] The assay buffer (0.1 M sodium acetate buffer, pH 4.6, containing 0.001% Tween 20) was premixed with the substrate and inhibitor; endothiapepsin was added directly before the measurement. As the substrate is a fluorogenic substrate, during measurement the fluorescence increased because of substrate hydrolysis by endothiapepsin. The initial slopes of the fluorescence in the acylhydrazone-containing wells were compared to the initial slope of the blanks for data analysis.

Structures are written as SMILES.

For `N[C@@H](Cc1c[nH]c2ccccc12)C(=O)N/N=C/c1ccc(C(F)(F)F)cc1` [compound 2], the IC50 came to 7 ± 0.5 µM; the “ΔGexpt, experimental Gibbs free energy of binding” value is -7.48 kcal/mol; the “LE (ligand efficiency)” value is recorded as 0.28.
Taken in the same sequence, the figures for `N[C@@H](Cc1c[nH]c2ccccc12)C(=O)N/N=C/c1cccc(C(F)(F)F)c1` [compound 3] were 244 ± 32 µM, -5.38 kcal/mol and 0.20.
Taken in the same sequence, the figures for `N[C@@H](Cc1c[nH]c2ccccc12)C(=O)N/N=C/c1ccccc1F` [compound 4] were 38 ± 7 µM, -6.48 kcal/mol and 0.27.
For `Cc1cccc(/C=N\NC(=O)[C@@H](N)Cc2c[nH]c3ccccc23)c1O` [compound 5], the IC50 was 36 ± 11 µM; the “ΔGexpt, experimental Gibbs free energy of binding” value is -6.5 kcal/mol; the “LE (ligand efficiency)” value came to 0.26.
On to `N[C@@H](Cc1c[nH]c2ccccc12)C(=O)N/N=C/c1ccccc1Br` [compound 6], for which the IC50 turned out to be 54.5 ± 0.5 µM; the “ΔGexpt, experimental Gibbs free energy of binding” value was -6.26 kcal/mol; the “LE (ligand efficiency)” value is 0.26.
Taken in the same sequence, the figures for `Cc1ccccc1/C=N/NC(=O)[C@@H](N)Cc1c[nH]c2ccccc12` [compound 7] were 59 ± 4 µM, -6.21 kcal/mol and 0.26.
Taken in the same sequence, the figures for `Cc1cccc(C)c1/C=N/NC(=O)[C@@H](N)Cc1c[nH]c2ccccc12` [compound 8] were 30 ± 5 µM, -6.62 kcal/mol and 0.26.
For the compound `N[C@@H](Cc1c[nH]c2ccccc12)C(=O)N/N=C/c1ccccc1` [compound 9], the “ΔGexpt, experimental Gibbs free energy of binding” value is -6.31 kcal/mol and the “LE (ligand efficiency)” value came to 0.27.
